Measurements from the supplement of paper PMC10307832.

Assays:
Experiment in all cases: relative viability (nuclei count vs DMSO), 5 days (fraction); higher = more cells survive
NCI-H1993 = test system: NCI-H1993
Procedure, shortened: (§1)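 Cells from lung cancer lines were seeded into 1536-well plates and, one day later, dosed by pin tool. Treatments were either a single drug or a fixed dose of an anchor drug with five library-drug doses (not always all listed) in √10 steps. After 5 days, nuclei were stained in a one-step fixation (final 0.05% Triton X-100, 1% formaldehyde, 1 ug/ml Hoechst) and counted on 4× images, and relative viability is the treated-to-vehicle nuclei ratio, as the median of duplicate plates.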

NCI-H1944 = test system: NCI-H1944
Procedure, shortened: as §1

NCI-H358 = test system: NCI-H358
Procedure, shortened: as §1

LXF-289 = test system: LXF-289
Procedure, shortened: as §1

NCI-H1792 = test system: NCI-H1792
Procedure, shortened: as §1

COR-L 105 = test system: COR-L 105
Procedure, shortened: as §1

NCI-H2023 = test system: NCI-H2023
Procedure, shortened: as §1

NCI-H2170 = test system: NCI-H2170
Procedure, shortened: as §1

NCI-H520 = test system: NCI-H520
Procedure, shortened: as §1

NCI-H2087 = test system: NCI-H2087
Procedure, shortened: as §1

H3255 = test system: H3255
Procedure, shortened: as §1

SK-MES-1 = test system: SK-MES-1
Procedure, shortened: as §1

HCC-827 = test system: HCC-827
Procedure, shortened: as §1

NCI-H1793 = test system: NCI-H1793
Procedure, shortened: as §1

SW 1573 = test system: SW 1573
Procedure, shortened: as §1

LOU-NH91 = test system: LOU-NH91
Procedure, shortened: as §1

LCLC-103H = test system: LCLC-103H
Procedure, shortened: as §1

NCI-H1975 = test system: NCI-H1975
Procedure, shortened: as §1

HCC-44 = test system: HCC-44
Procedure, shortened: as §1

NCI-H1915 = test system: NCI-H1915
Procedure, shortened: as §1

A-427 = test system: A-427
Procedure, shortened: as §1

`CCNC(=O)c1noc(-c2cc(C(C)C)c(O)cc2O)c1-c1ccc(CN2CCOCC2)cc1` [Luminespib] + CS(=O)(=O)N1CCN(Cc2cc3nc(-c4cccc5[nH]ncc45)nc(N4CCOCC4)c3s2)CC1 [Pictilisib] (partner 1 µM) was tested. Which relative viability (NCI-H1993; first compound 0.002 µM) did it give?
Its relative viability is 0.85.

And the relative viability (NCI-H1993; first compound 0.006325 µM)?
Its relative viability is 0.836.

What about the relative viability (NCI-H1993; first compound 0.02 µM) of the same compound?
The relative viability was 0.744.

What about the relative viability (NCI-H1993; first compound 0.06325 µM) of the same compound?
Its relative viability is 0.787.

And the relative viability (NCI-H1993; first compound 0.2 µM)?
Its relative viability is 0.643.

What about the relative viability (NCI-H1944; first compound 0.002 µM) of the same compound?
Its relative viability is 0.337.

And the relative viability (NCI-H1944; first compound 0.006325 µM)?
The relative viability was 0.258.

And the relative viability (NCI-H1944; first compound 0.02 µM)?
Its relative viability is 0.262.

And the relative viability (NCI-H1944; first compound 0.06325 µM)?
The relative viability was 0.28.

What about the relative viability (NCI-H1944; first compound 0.2 µM) of the same compound?
The relative viability was 0.22.

What about the relative viability (NCI-H358; first compound 0.002 µM) of the same compound?
The relative viability was 0.342.

What about the relative viability (NCI-H358; first compound 0.006325 µM) of the same compound?
The relative viability was 0.311.

And the relative viability (NCI-H358; first compound 0.02 µM)?
Its relative viability is 0.222.

What about the relative viability (NCI-H358; first compound 0.06325 µM) of the same compound?
The relative viability was 0.133.

What about the relative viability (NCI-H358; first compound 0.2 µM) of the same compound?
Its relative viability is 0.124.

And the relative viability (LXF-289; first compound 0.002 µM)?
The relative viability was 0.75.

And the relative viability (LXF-289; first compound 0.006325 µM)?
Its relative viability is 0.809.

What about the relative viability (LXF-289; first compound 0.02 µM) of the same compound?
Its relative viability is 0.714.

And the relative viability (LXF-289; first compound 0.06325 µM)?
Its relative viability is 0.121.

And the relative viability (LXF-289; first compound 0.2 µM)?
Its relative viability is 0.087.

What about the relative viability (NCI-H1792; first compound 0.002 µM) of the same compound?
Its relative viability is 0.302.

What about the relative viability (NCI-H1792; first compound 0.006325 µM) of the same compound?
Its relative viability is 0.273.

And the relative viability (NCI-H1792; first compound 0.02 µM)?
Its relative viability is 0.13.

And the relative viability (NCI-H1792; first compound 0.06325 µM)?
The relative viability was 0.124.

What about the relative viability (NCI-H1792; first compound 0.2 µM) of the same compound?
The relative viability was 0.0905.

And the relative viability (COR-L 105; first compound 0.002 µM)?
Its relative viability is 0.386.

What about the relative viability (COR-L 105; first compound 0.006325 µM) of the same compound?
Its relative viability is 0.488.

And the relative viability (COR-L 105; first compound 0.02 µM)?
Its relative viability is 0.248.

And the relative viability (COR-L 105; first compound 0.06325 µM)?
The relative viability was 0.223.

What about the relative viability (COR-L 105; first compound 0.2 µM) of the same compound?
Its relative viability is 0.254.

What about the relative viability (NCI-H2023; first compound 0.002 µM) of the same compound?
Its relative viability is 0.274.

And the relative viability (NCI-H2023; first compound 0.006325 µM)?
The relative viability was 0.243.

And the relative viability (NCI-H2023; first compound 0.02 µM)?
The relative viability was 0.105.

What about the relative viability (NCI-H2023; first compound 0.06325 µM) of the same compound?
Its relative viability is 0.0887.

And the relative viability (NCI-H2023; first compound 0.2 µM)?
Its relative viability is 0.0954.

What about the relative viability (NCI-H2170; first compound 0.002 µM) of the same compound?
Its relative viability is 0.304.

And the relative viability (NCI-H2170; first compound 0.006325 µM)?
The relative viability was 0.313.

And the relative viability (NCI-H2170; first compound 0.02 µM)?
The relative viability was 0.223.

And the relative viability (NCI-H2170; first compound 0.06325 µM)?
Its relative viability is 0.165.

And the relative viability (NCI-H2170; first compound 0.2 µM)?
Its relative viability is 0.155.

What about the relative viability (NCI-H520; first compound 0.002 µM) of the same compound?
The relative viability was 0.298.

What about the relative viability (NCI-H520; first compound 0.006325 µM) of the same compound?
The relative viability was 0.334.

And the relative viability (NCI-H520; first compound 0.02 µM)?
Its relative viability is 0.209.

What about the relative viability (NCI-H520; first compound 0.06325 µM) of the same compound?
The relative viability was 0.176.

What about the relative viability (NCI-H520; first compound 0.2 µM) of the same compound?
The relative viability was 0.196.

And the relative viability (NCI-H2087; first compound 0.002 µM)?
The relative viability was 0.908.

And the relative viability (NCI-H2087; first compound 0.006325 µM)?
The relative viability was 0.776.

What about the relative viability (NCI-H2087; first compound 0.02 µM) of the same compound?
Its relative viability is 0.663.

And the relative viability (NCI-H2087; first compound 0.06325 µM)?
The relative viability was 0.2.

And the relative viability (NCI-H2087; first compound 0.2 µM)?
Its relative viability is 0.157.

And the relative viability (H3255; first compound 0.002 µM)?
Its relative viability is 0.497.

What about the relative viability (H3255; first compound 0.006325 µM) of the same compound?
The relative viability was 0.474.

And the relative viability (H3255; first compound 0.02 µM)?
Its relative viability is 0.31.

And the relative viability (H3255; first compound 0.06325 µM)?
The relative viability was 0.327.

What about the relative viability (H3255; first compound 0.2 µM) of the same compound?
The relative viability was 0.179.

And the relative viability (SK-MES-1; first compound 0.002 µM)?
Its relative viability is 0.36.

What about the relative viability (SK-MES-1; first compound 0.006325 µM) of the same compound?
The relative viability was 0.418.

And the relative viability (SK-MES-1; first compound 0.02 µM)?
Its relative viability is 0.271.

And the relative viability (SK-MES-1; first compound 0.06325 µM)?
Its relative viability is 0.114.

And the relative viability (SK-MES-1; first compound 0.2 µM)?
The relative viability was 0.106.

And the relative viability (HCC-827; first compound 0.002 µM)?
The relative viability was 0.949.

What about the relative viability (HCC-827; first compound 0.006325 µM) of the same compound?
Its relative viability is 1.02.

And the relative viability (HCC-827; first compound 0.02 µM)?
Its relative viability is 0.802.

What about the relative viability (HCC-827; first compound 0.06325 µM) of the same compound?
Its relative viability is 0.555.

And the relative viability (HCC-827; first compound 0.2 µM)?
Its relative viability is 0.551.

What about the relative viability (NCI-H1793; first compound 0.002 µM) of the same compound?
Its relative viability is 0.313.

And the relative viability (NCI-H1793; first compound 0.006325 µM)?
Its relative viability is 0.342.

What about the relative viability (NCI-H1793; first compound 0.02 µM) of the same compound?
The relative viability was 0.12.

What about the relative viability (NCI-H1793; first compound 0.06325 µM) of the same compound?
Its relative viability is 0.168.

And the relative viability (NCI-H1793; first compound 0.2 µM)?
The relative viability was 0.194.

And the relative viability (SW 1573; first compound 0.002 µM)?
The relative viability was 0.508.

And the relative viability (SW 1573; first compound 0.006325 µM)?
Its relative viability is 0.619.

And the relative viability (SW 1573; first compound 0.02 µM)?
Its relative viability is 0.428.

And the relative viability (SW 1573; first compound 0.06325 µM)?
Its relative viability is 0.145.

And the relative viability (SW 1573; first compound 0.2 µM)?
The relative viability was 0.105.

What about the relative viability (LOU-NH91; first compound 0.002 µM) of the same compound?
Its relative viability is 0.53.

And the relative viability (LOU-NH91; first compound 0.006325 µM)?
The relative viability was 0.566.

And the relative viability (LOU-NH91; first compound 0.02 µM)?
Its relative viability is 0.469.

And the relative viability (LOU-NH91; first compound 0.06325 µM)?
The relative viability was 0.367.

What about the relative viability (LOU-NH91; first compound 0.2 µM) of the same compound?
Its relative viability is 0.358.

What about the relative viability (LCLC-103H; first compound 0.002 µM) of the same compound?
Its relative viability is 0.629.

What about the relative viability (LCLC-103H; first compound 0.006325 µM) of the same compound?
The relative viability was 0.5.

What about the relative viability (LCLC-103H; first compound 0.02 µM) of the same compound?
Its relative viability is 0.466.

And the relative viability (LCLC-103H; first compound 0.06325 µM)?
Its relative viability is 0.651.

What about the relative viability (LCLC-103H; first compound 0.2 µM) of the same compound?
Its relative viability is 0.271.

What about the relative viability (NCI-H1975; first compound 0.002 µM) of the same compound?
Its relative viability is 0.26.

And the relative viability (NCI-H1975; first compound 0.006325 µM)?
The relative viability was 0.257.

What about the relative viability (NCI-H1975; first compound 0.02 µM) of the same compound?
Its relative viability is 0.135.

What about the relative viability (NCI-H1975; first compound 0.06325 µM) of the same compound?
The relative viability was 0.115.

And the relative viability (NCI-H1975; first compound 0.2 µM)?
The relative viability was 0.106.

What about the relative viability (HCC-44; first compound 0.002 µM) of the same compound?
The relative viability was 0.663.

What about the relative viability (HCC-44; first compound 0.006325 µM) of the same compound?
The relative viability was 0.641.

And the relative viability (HCC-44; first compound 0.02 µM)?
Its relative viability is 0.62.

And the relative viability (HCC-44; first compound 0.06325 µM)?
The relative viability was 0.381.

And the relative viability (HCC-44; first compound 0.2 µM)?
Its relative viability is 0.12.

What about the relative viability (NCI-H1915; first compound 0.002 µM) of the same compound?
Its relative viability is 0.939.

And the relative viability (NCI-H1915; first compound 0.006325 µM)?
Its relative viability is 0.729.

What about the relative viability (NCI-H1915; first compound 0.02 µM) of the same compound?
Its relative viability is 0.567.

And the relative viability (NCI-H1915; first compound 0.06325 µM)?
The relative viability was 0.827.

What about the relative viability (NCI-H1915; first compound 0.2 µM) of the same compound?
Its relative viability is 0.062.

And the relative viability (A-427; first compound 0.002 µM)?
The relative viability was 0.62.

And the relative viability (A-427; first compound 0.006325 µM)?
The relative viability was 0.634.

What about the relative viability (A-427; first compound 0.02 µM) of the same compound?
Its relative viability is 0.441.

What about the relative viability (A-427; first compound 0.06325 µM) of the same compound?
Its relative viability is 0.733.

What about the relative viability (A-427; first compound 0.2 µM) of the same compound?
The relative viability was 0.35.
